Measurements published in publication PMC5080649 (CPT: Pharmacometrics & Systems Pharmacology, 2016).
In brackets after ≈: the same amount, converted by molar mass. Like-named read-outs stand apart in the source and are kept apart here.

Columns and labels:
factor Xa [1] = target: factor Xa (Homo sapiens, UniProt P00742); assay: Antifactor Xa; type: in vivo
antithrombin III = assay: Antithrombin III; type: in vivo, human; conditions: AT III activity; GCC4401C, SAD study; Linear model
[2] = tested on: activated partial thromboplastin time; assay: Activated partial thromboplastin time; type: in vivo, human; conditions: for EC50: Homo sapiens
[3] = for CL renal: male, human, in vivo, GCC-4401C, plasma and urine PK modeling analysis from the SAD study
factor Xa [4] = target: factor Xa (Bos taurus, UniProt P00743); assay: LMWH assay; type: in vivo, human; conditions: GCC4401C, SAD study
prothrombin time = assay: Prothrombin time; type: in vivo, human; conditions: for EC50: Homo sapiens; for comparable dose of rivaroxaban in PT: Monte-Carlo simulation
factor X = factor X (Homo sapiens, UniProt P00742); assay: Factor X chromogenic activity assay; type: in vivo; conditions: for comparable dose of rivaroxaban in FXCAA: Monte-Carlo simulation
factor X, sequence (P00742 235-488 limits assumed): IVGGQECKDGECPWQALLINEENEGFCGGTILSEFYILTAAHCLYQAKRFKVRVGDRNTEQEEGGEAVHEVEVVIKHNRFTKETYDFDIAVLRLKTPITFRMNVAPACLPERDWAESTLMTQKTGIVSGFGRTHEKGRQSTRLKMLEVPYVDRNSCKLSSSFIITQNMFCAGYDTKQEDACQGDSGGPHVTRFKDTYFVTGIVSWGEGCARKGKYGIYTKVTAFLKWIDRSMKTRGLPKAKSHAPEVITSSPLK
factor X, sequence (P00742 41-179 limits assumed): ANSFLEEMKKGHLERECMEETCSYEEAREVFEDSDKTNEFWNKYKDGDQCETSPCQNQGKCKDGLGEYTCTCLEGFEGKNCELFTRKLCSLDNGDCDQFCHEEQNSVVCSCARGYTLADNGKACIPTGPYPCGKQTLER

coagulation factor X = coagulation factor X (Homo sapiens, UniProt P00742); assay: Coagulation factor X; type: in vivo
coagulation factor X, sequence (P00742 235-488 limits assumed): as the sequence (P00742 235-488 limits assumed) above
coagulation factor X, sequence (P00742 41-179 limits assumed): as the sequence (P00742 41-179 limits assumed) above

[5] = oral, cited from earlier work
[6] = Antifactor Xa activity, GCC4401C, S&MAD study, Sigmoid Emax model
[7] = Antifactor Xa activity, GCC4401C, S&MAD study, variance (CV %)
[8] = GCC4401C oral, fasted, SAD and S&MAD studies, final model
[9] = GCC4401C oral, fasted, SAD and S&MAD studies, variance (CV %)
[10] = GCC-4401C oral, fasted, base model
[11] = PT (INR), GCC4401C, SAD and S&MAD studies, Sigmoid Emax model
[12] = Prothrombin time (seconds), GCC4401C, Sigmoid Emax model
[13] = FXCAA, GCC4401C, S&MAD study, variance (CV %)
[14] = Coagulation factor X, GCC4401C, SAD and S&MAD studies, variance (CV %)
[15] = Coagulation factor X, GCC4401C, variance (CV %)
[16] = Activated PT (seconds), Rivaroxaban, S&MAD, Sigmoid Emax model
[17] = rivaroxaban 20 mg, fed, S&MAD study
[18] = rivaroxaban 20 mg, fed, S&MAD study, variance (CV %)
[19] = PT (INR), Rivaroxaban, S&MAD study, Simple Emax model
[20] = FXCAA, Rivaroxaban, S&MAD study, variance (CV %)
[21] = Coagulation factor X, Rivaroxaban, S&MAD study, Sigmoid Emax model
[22] = Coagulation factor X, Rivaroxaban, S&MAD study, variance (CV %)

factor Xa (Homo sapiens, UniProt P00742), sequence (P00742 235-488 limits assumed): as the sequence (P00742 235-488 limits assumed) above
factor Xa (Homo sapiens, UniProt P00742), sequence (P00742 41-179 limits assumed): as the sequence (P00742 41-179 limits assumed) above

CS(=O)(=O)O.O=C(NC[C@H]1CN(c2ccc(N3CCNC=N3)cc2)C(=O)O1)c1ccc(Cl)s1 [GCC‐4401C, (S)−5‐chloro‐N‐((3‐(4‐(5,6‐dihydro‐1,2,4‐triazin‐1(4H)‐yl)phenyl)−2‐oxooxazolidin‐5‐yl)methyl)thiophene‐2‐carboxamide methanesulfonate]
EC50 (factor Xa [1]): 1350 nM
Emax (factor Xa [1]; [6]): 3.24 IU/mL
γ (shape parameter) (factor Xa [1]; [6]): 1.25
IIV + IOVEC50 (%) (factor Xa [1]; [7]): 0.005 (7.2)
IIVEmax (CV, %) (factor Xa [1]; [7]): 0.04 (20.8)
IIVγ (CV, %) (factor Xa [1]; [7]): 0.02 (13.4)
comparable dose of rivaroxaban in AFX assay (factor Xa [1]; Monte-Carlo simulation, GCC-4401C 10 mg): ~20 mg
comparable dose of rivaroxaban in AFX (factor Xa [1]; Monte-Carlo simulation, GCC-4401C 20 mg): ~40 mg
SLOPE (antithrombin III): 0.006
Emax, SAD ([2]; Activated PT (seconds), GCC4401C, SAD study, Sigmoid Emax model): 16.9 s
Emax, SAD/MAD ([2]; Activated PT (seconds), GCC4401C, SAD/MAD study, Sigmoid Emax model): 20.4 s
γ (shape parameter) ([2]; Activated PT (seconds), GCC4401C, Sigmoid Emax model): 1.37
EC50 [2]: 0.573 µg/mL
ALAG1 (delay in absorption) [3, 8]: 0.20 h
D1 (duration of zero-order absorption) [3, 8]: 0.395 h
IIV + IOVALAG1 (CV, %) [3, 9]: 0.14 (38.8)
IIV + IOVD1 (CV, %) [3, 9]: 1.49 (185.4)
IIVCLNR (CV, %) [3, 9]: 0.046 (21.7)
IIVCLR (CV, %) [3, 9]: 0.052 (23.2)
IIVKa (CV, %) [3, 9]: 0.97 (128.0)
IIVVc (CV, %) [3, 9]: 0.09 (30.5)
IIVVp (CV, %) [3, 9]: 0.11 (33.8)
Θ for WT and Vc (power covariate effect of body weight on Vc) ([3]; GCC4401C, Typical Vc=Vc(75)*(WT/75)^Θ): 0.67
Vc [3, 10]: 55.6 L
Vp [3, 10]: 25.9 L
average steady-state volume of distribution [3, 10]: 81.5 L
total clearance ([3]; GCC-4401C oral, fasted, final model): 12.0 L/h
CL renal ([3]; nonrenal clearance (CLNR)): 200 mL/min
CL renal ([3]; renal clearance (CLR)): 13.7 mL/min
Emax (factor Xa [4]; Simple Emax model): 3.83
IIVEC50 (CV, %) (factor Xa [4]; variance (CV %)): 0.29 (57.4)
EC50 (prothrombin time; read-out: EC50, SAD, PT (INR), GCC4401C, SAD study, Sigmoid Emax model): 0.426 µg/mL
EC50 (prothrombin time; read-out: EC50, SAD, Prothrombin time (seconds), GCC4401C, SAD study, Sigmoid Emax model): 0.563 µg/mL
EC50 (prothrombin time; read-out: EC50, SAD/MAD, PT (INR), GCC4401C, SAD/MAD study, Sigmoid Emax model): 1.35 µg/mL
EC50 (prothrombin time; read-out: EC50, SAD/MAD, Prothrombin time (seconds), GCC4401C, SAD/MAD study, Sigmoid Emax model): 1.45 µg/mL
comparable dose of rivaroxaban in PT (prothrombin time; GCC-4401C 10 mg): 30 to 40 mg
comparable dose of rivaroxaban in PT (prothrombin time; GCC-4401C 20 mg): ~40 mg
Emax (prothrombin time; [11]): 1.32 INR
γ (shape parameter) (prothrombin time; [11]): 1.23
Emax (prothrombin time; [12]): 15.2 s
γ (shape parameter) (prothrombin time; [12]): 1.16
EC50 (factor X): 814 nM
γ (shape parameter) (factor X; FXCAA, GCC4401C, S&MAD study, Sigmoid Emax model): 0.90
IIVEmax (CV, %) (factor X; [13]): 0.01 (11.3)
IIVγ (CV, %) (factor X; [13]): 0.06 (25.7)
Emax (factor X; Factor X chromogenic activity assay, GCC4401C, S&MAD study, Sigmoid Emax model): 99.8%
comparable dose of rivaroxaban in FXCAA (factor X; GCC-4401C 10 mg): 30 to 40 mg
comparable dose of rivaroxaban in FXCAA (factor X; GCC-4401C 20 mg): ~80 mg
EC50 (coagulation factor X): 5580 nM
Emax (coagulation factor X; Coagulation factor X, GCC4401C, SAD and S&MAD studies, Sigmoid Emax model): 81.2%
IIVEC50 (%) (coagulation factor X; [14]): 0.98 (129.4)
IIVEmax (CV, %) (coagulation factor X; [14]): 0.10 (33.1)
γSAD (shape parameter) (coagulation factor X; Coagulation factor X, GCC4401C, SAD study, Sigmoid Emax model): 1.07
γSAD/MAD (shape parameter) (coagulation factor X; Coagulation factor X, GCC4401C, SAD/MAD study, Sigmoid Emax model): 0.60
IIVγ (CV, %) (coagulation factor X; [15]): 0.24 (51.8)
IOVγ (CV, %) (coagulation factor X; [15]): 0.09 (30.1)

O=C(NC[C@H]1CN(c2ccc(N3CCOCC3=O)cc2)C(=O)O1)c1ccc(Cl)s1 [rivaroxaban, reference compound]
SLOPE (factor Xa [1]; Antifactor Xa activity, Rivaroxaban, S&MAD study, Linear model): 0.005
IIVSLOPE (CV, %) (factor Xa [1]; Antifactor Xa activity, Rivaroxaban, S&MAD study, variance (CV %)): 0.01 (10.8)
Emax [2, 16]: 12.4 s
γ (shape parameter) [2, 16]: 0.94
EC50 [2]: 0.135 µg/mL (≈ 0.31 µM)
D1 (duration of zero-order absorption) [3, 17]: 1.07 h
γ (shape parameter in Weibull-type absorption model) [3, 17]: 1.34
IIVCL (%) [3, 18]: 0.015 (12.3)
IIVKa (CV, %) [3, 18]: 3.3 (503.1)
IIVVc (CV, %) [3, 18]: 0.01 (10.0)
IIVVp (CV, %) [3, 18]: 0.06 (25.7)
EC50 (prothrombin time; [19]): 0.434 µg/mL (≈ 0.996 µM)
Emax (prothrombin time; [19]): 0.71 INR
Emax (prothrombin time; Prothrombin time (seconds), Rivaroxaban, S&MAD study, Simple Emax model): 6.86 s
increase of Cmax with food ([5]; >10 mg, with food vs fasting): 76%
increase of mean area under concentration time curve with food ([5]; >10 mg, with food vs fasting): 39%
bioavailability ([5]; independent of food up to 10 mg): 80–100%
Emax (factor X; FXCAA, Rivaroxaban, S&MAD study, Simple Emax model): 112.0%
IIVEC50 (CV, %) (factor X; [20]): 0.07 (26.9)
IOVEC50 (CV, %) (factor X; [20]): 0.01 (8.2)
Emax (coagulation factor X; [21]): 42.9%
γ (shape parameter) (coagulation factor X; [21]): 0.90
IIVEC50 (CV, %) (coagulation factor X; [22]): 0.33 (62.1)
IOVEC50 (CV, %) (coagulation factor X; [22]): 0.25 (52.9)
